Test results: ChEMBL document CHEMBL1152459, “Drugs designed to inhibit human p38 mitogen-activated protein kinase activation treat Toxoplasma gondii and Encephalitozoon cuniculi infection” (Antimicrob Agents Chemother, 2007)
Calls of active or inactive are those of the source. The rule behind the calls is not given here.

Columns and labels:
[1] = system: Toxoplasma gondii; test: (§1) Antiprotozoal activity against 5 MOI SB-203580-resistant Toxoplasma gondii SBRMe49-2 tachyzoites infected in confluent HFF assessed as inhibition of [3H]uracil incorporation into tachyzoites at 0.25 to 10 uM treated 4 hrs after infection measured after overnight incubation post uracil addition by liquid scintillation counting; type: functional, organism-based
[2] = system: Toxoplasma gondii; test: Antiprotozoal activity against 2000Toxoplasma gondii RH tachyzoites infected 30 days after initial 100 parasite infection in CBA/J mouse assessed as mouse survival time at 5 mg/kg, ip administered 2 hrs postinfection for 7 consecutive days; settings: route intraperitoneal
[3] = system: Toxoplasma gondii; test: Antiprotozoal activity against 1000 Toxoplasma gondii RH tachyzoites infected in CBA/J mouse assessed as prolongation of survival of mous at 60 mg/kg, ip administered 24 hrs postinfection for 7 consecutive days; type: functional, organism-based; design: dose 60 mg/kg
[4] = system: Toxoplasma gondii; test: Antiprotozoal activity against 1000 Toxoplasma gondii RH tachyzoites infected in CBA/J mouse assessed as prolongation of survival of mous at 15 mg/kg, ip administered 24 hrs postinfection for 7 consecutive days; type: functional, organism-based; design: dose 15 mg/kg
[5] = system: Toxoplasma gondii; test: Antiprotozoal activity against 20 Toxoplasma gondii RH tachyzoites infected in CBA/J mouse assessed as prolongation of survival of mous at 17 mg/kg, po administered 2 hrs postinfection for 7 consecutive days; type: functional, organism-based; design: dose 17 mg/kg
[6] = system: Toxoplasma gondii; test: Antiprotozoal activity against 1000 Toxoplasma gondii RH tachyzoites infected in CBA/J mouse assessed as prolongation of survival of mous at 7.5 mg/kg, ip administered 24 hrs postinfection for 7 consecutive days; type: functional, organism-based; design: dose 7.5 mg/kg
[7] = system: Toxoplasma gondii; test: Antiprotozoal activity against 100 Toxoplasma gondii RH tachyzoites infected in CBA/J mouse assessed as prolongation of survival of mous at 60 mg/kg, ip administered 24 hrs postinfection once daily for 7 consecutive days; type: functional, organism-based; design: dose 60 mg/kg
[8] = biological target: Mitogen-activated protein kinase 14 (Homo sapiens, UniProt Q16539)
Mitogen-activated protein kinase 14, sequence (Q16539 whole entry): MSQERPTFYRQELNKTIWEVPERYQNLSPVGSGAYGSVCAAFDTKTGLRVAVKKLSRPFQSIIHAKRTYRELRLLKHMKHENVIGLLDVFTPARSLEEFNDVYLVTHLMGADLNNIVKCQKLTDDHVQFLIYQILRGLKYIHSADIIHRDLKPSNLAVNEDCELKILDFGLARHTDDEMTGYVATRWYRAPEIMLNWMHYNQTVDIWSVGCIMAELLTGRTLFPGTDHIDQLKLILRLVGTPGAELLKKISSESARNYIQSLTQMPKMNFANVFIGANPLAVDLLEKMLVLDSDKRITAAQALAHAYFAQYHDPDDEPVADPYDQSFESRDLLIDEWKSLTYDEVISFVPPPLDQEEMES
Description: Inhibition of human recombinant p38alpha assessed as [gamma33P]ATP utilization by microplate scintillation counting

[9] = system: Toxoplasma gondii; test: microbe, parasite or virus in culture; settings: ME49
Description: Antiprotozoal activity against 5 MOI Toxoplasma gondii Me49 tachyzoites infected in confluent HFF assessed as inhibition of [3H]uracil incorporation into tachyzoites treated 4 hrs after infection measured after overnight incubation post uracil addition by liquid scintillation counting

[10] = system: Toxoplasma gondii; test: Antiprotozoal activity against 20 Toxoplasma gondii RH tachyzoites infected in CBA/J mouse assessed as prolongation of survival of mous at 30 mg/kg, ip administered 2 hrs postinfection for 7 consecutive days; type: functional; settings: route intraperitoneal
[11] = system: Mus musculus; test: Toxicity in CBA/J mouse at 50 mg/kg, po; type: organism-based; design: dose 50 mg/kg, route oral; settings: in vivo
[12] = system: Toxoplasma gondii; test: microbe, parasite or virus in culture; settings: RH
Description: Antiprotozoal activity against 1 MOI Toxoplasma gondii RH tachyzoites infected in confluent HFF assessed as inhibition of [3H]uracil incorporation into tachyzoites treated 4 hrs after infection measured after overnight incubation post uracil addition by liquid scintillation counting

[13] = system: Mus musculus; test: Toxicity in CBA/J mouse assessed as occasional and transient fur ruffling at 60 mg/kg, ip; type: organism-based; design: dose 60 mg/kg, route intraperitoneal; settings: in vivo
[14] = system: Encephalitozoon cuniculi; test: Antiprotozoal activity against Encephalitozoon cuniculi infected in CD8 knockout […] mouse mouse survival at 6 mg/kg, ip administered 2 days after infection for 15 consecutive days; type: functional, organism-based; design: dose 6 mg/kg
[15] = system: Mus musculus; test: Toxicity in CBA/J mouse at 17 mg/kg, po; type: organism-based; design: dose 17 mg/kg, route oral; settings: in vivo
[16] = system: Toxoplasma gondii; test: Antiprotozoal activity against 100 Toxoplasma gondii RH tachyzoites infected in CBA/J mouse assessed as prolongation of survival of mous at 30 mg/kg, ip twice daily for 7 consecutive days administered 2 hrs postinfection; type: functional, organism-based; design: dose 30 mg/kg
[17] = system: Toxoplasma gondii; test: Antiprotozoal activity against 1000 Toxoplasma gondii RH tachyzoites infected in CBA/J mouse assessed as prolongation of survival of mous at 3.8 mg/kg, ip administered 24 hrs postinfection for 7 consecutive days; type: functional, organism-based; design: dose 3.8 mg/kg
[18] = system: Toxoplasma gondii; test: Antiprotozoal activity against 2000Toxoplasma gondii RH tachyzoites infected 30 days after initial 100 parasite infection in CBA/J mouse assessed as mouse survival time at 60 mg/kg, ip administered 2 hrs postinfection for 7 consecutive days; settings: route intraperitoneal
[19] = system: Toxoplasma gondii; test: Antiprotozoal activity against 100 Toxoplasma gondii RH tachyzoites infected in CBA/J mouse survival at 60 mg/kg, ip administered 2 hrs postinfection once daily for 7 consecutive days in presence of pyrimethamine 5 mg/kg, po; type: functional
[20] = system: Toxoplasma gondii; test: Antiprotozoal activity against 2000Toxoplasma gondii RH tachyzoites infected 30 days after initial 20 parasite infection in CBA/J mouse assessed as mouse survival time at 30 mg/kg, ip administered 2 hrs postinfection for 7 consecutive days; settings: route intraperitoneal
[21] = system: Toxoplasma gondii; test: Antiprotozoal activity against 100 Toxoplasma gondii RH tachyzoites infected in CBA/J mouse survival at 60 mg/kg, ip administered 2 hrs postinfection once daily for 7 consecutive days; type: functional; settings: route intraperitoneal
[22] = system: Toxoplasma gondii; test: Antiprotozoal activity against 100 Toxoplasma gondii RH tachyzoites infected in CBA/J mouse survival at 60 mg/kg, ip administered 2 hrs postinfection once daily for 7 consecutive days in presence of sulfadiazine 75 mg/liter; type: functional; settings: route intraperitoneal
[23] = biological target: T1, Mitogen-activated protein kinase 1 (Toxoplasma gondii, UniProt Q5SC61); test: Inhibition of Toxoplasma gondii recombinant MAPK1 expressed in Escherichia coli; type: cell-free
T1 sequence (Q5SC61 whole entry): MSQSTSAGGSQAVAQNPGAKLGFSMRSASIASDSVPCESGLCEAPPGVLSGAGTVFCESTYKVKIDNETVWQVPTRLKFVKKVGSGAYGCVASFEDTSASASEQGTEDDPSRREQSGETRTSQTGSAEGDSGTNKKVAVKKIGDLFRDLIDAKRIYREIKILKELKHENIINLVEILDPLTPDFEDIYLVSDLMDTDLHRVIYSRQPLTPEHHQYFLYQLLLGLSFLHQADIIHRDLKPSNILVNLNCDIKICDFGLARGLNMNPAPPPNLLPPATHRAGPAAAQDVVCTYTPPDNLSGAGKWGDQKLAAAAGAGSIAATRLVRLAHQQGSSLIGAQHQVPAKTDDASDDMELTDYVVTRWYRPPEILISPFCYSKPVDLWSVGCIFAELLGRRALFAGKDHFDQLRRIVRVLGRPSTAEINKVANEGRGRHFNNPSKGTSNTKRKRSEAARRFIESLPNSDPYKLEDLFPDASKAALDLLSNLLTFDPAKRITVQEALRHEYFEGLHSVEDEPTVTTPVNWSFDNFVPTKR

[24] = system: Toxoplasma gondii; test: Antiprotozoal activity against 100 Toxoplasma gondii RH tachyzoites infected in CBA/J mouse assessed as prolongation of survival of mous at 30 mg/kg, ip administered 24 hrs postinfection twice daily for 7 consecutive days; type: functional, organism-based; design: dose 30 mg/kg
[25] = system: Toxoplasma gondii; test: Antiprotozoal activity against 20 Toxoplasma gondii RH tachyzoites infected in CBA/J mouse assessed as prolongation of survival of mous at 60 mg/kg, ip administered 2 hrs postinfection for 7 consecutive days; type: functional; settings: route intraperitoneal
[26] = system: Toxoplasma gondii; test: Antiprotozoal activity against 20 Toxoplasma gondii RH tachyzoites infected in CBA/J mouse assessed as prolongation of survival of mous at 50 mg/kg, po administered 2 hrs postinfection for 7 consecutive days; type: functional, organism-based; design: dose 50 mg/kg
[27] = system: Mus musculus; test: Toxicity in CBA/J mouse at 30 mg/kg, ip; type: organism-based; design: dose 30 mg/kg, route intraperitoneal; settings: in vivo
[28] = system: Encephalitozoon cuniculi; test: Antiprotozoal activity against Encephalitozoon cuniculi infected in CD8 knockout […] mouse assessed as prolongation of survival of mous-related absence of ascites fluid and sluggishness at 36 mg/kg, ip administered 2 days after infection for 15 consecutive days; type: functional, organism-based; design: dose 36 mg/kg
[29] = system: Toxoplasma gondii; test: Antiprotozoal activity against 2000Toxoplasma gondii RH tachyzoites infected 30 days after initial 20 parasite infection in CBA/J mouse assessed as mouse survival time at 60 mg/kg, ip administered 2 hrs postinfection for 7 consecutive days; settings: route intraperitoneal
[30] = system: Toxoplasma gondii; test: Antiprotozoal activity against 1000 Toxoplasma gondii RH tachyzoites infected in CBA/J mouse assessed as prolongation of survival of mous at 30 mg/kg, ip administered 24 hrs postinfection for 7 consecutive days; type: functional, organism-based; design: dose 30 mg/kg
[31] = system: Toxoplasma gondii; test: as §1, with “wild type” for “SB-203580-resistant”, “Me49” for “SBRMe49-2”; type: functional, organism-based

Oc1ccc(-c2nc(-c3ccc(F)cc3)c(-c3ccncc3)[nH]2)cc1
Activity [1]: inactive

OCCC#Cc1nc(-c2ccc(F)cc2)c(-c2ccncc2)n1CCCc1ccccc1 [RWJ-67657]
Activity [2]: 30 days
Activity [3]: Active
Activity [4]: inactive
Activity [5]: inactive
Activity [6]: inactive
Activity [7]: inactive
IC50 [8]: 1000 nM
IC50 [9]: 800 nM
Activity [10]: 100%
Activity [11]: Non-toxic
IC50 [12]: 5000 nM
Activity [13]: Toxic
Activity [14]: inactive
Activity [15]: Non-toxic
Activity [16]: inactive
Activity [17]: inactive
Activity [18]: 30 days
Activity [19]: 80%
Activity [20]: 30 days
Activity [21]: 40%
Activity [22]: 80%
IC50 [23]: 200 nM
Activity [24]: inactive
Activity [1]: inactive
Activity [25]: 100%
Activity [26]: inactive
Activity [27]: Non-toxic
Activity [28]: Active
Activity [29]: 30 days
Activity [30]: inactive

CCc1nc(-c2ccc(OC)cc2)[nH]c1-c1ccncc1 [SB-202474]
Activity [2]: 30 days
Activity [31]: inactive
Activity [18]: 30 days
Activity [20]: 30 days
Activity [1]: inactive
Activity [29]: 30 days

C[S+]([O-])c1ccc(-c2nc(-c3ccc(F)cc3)c(-c3ccncc3)[nH]2)cc1 (stereo not drawn) [SB-203580]
Activity [2]: 30 days
IC50 [9]: 2500 nM
IC50 [12]: 8500 nM
Activity [18]: 30 days
Activity [20]: 30 days
Activity [29]: 30 days
